Measured values from US11787783B2, “Heparanase inhibitors and use thereof” (Beta Therapeutics Pty Ltd, priority 2016, dated 2023).
Read-outs that look alike come from different tables or passages of the source.

Columns and labels:
[1] = molecular target: T1, heparanase (Homo sapiens, UniProt Q9Y251); assay: Heparanase inhibition (IC50); assay type: biochemical
T1 sequence (Q9Y251 158-543 limits assumed): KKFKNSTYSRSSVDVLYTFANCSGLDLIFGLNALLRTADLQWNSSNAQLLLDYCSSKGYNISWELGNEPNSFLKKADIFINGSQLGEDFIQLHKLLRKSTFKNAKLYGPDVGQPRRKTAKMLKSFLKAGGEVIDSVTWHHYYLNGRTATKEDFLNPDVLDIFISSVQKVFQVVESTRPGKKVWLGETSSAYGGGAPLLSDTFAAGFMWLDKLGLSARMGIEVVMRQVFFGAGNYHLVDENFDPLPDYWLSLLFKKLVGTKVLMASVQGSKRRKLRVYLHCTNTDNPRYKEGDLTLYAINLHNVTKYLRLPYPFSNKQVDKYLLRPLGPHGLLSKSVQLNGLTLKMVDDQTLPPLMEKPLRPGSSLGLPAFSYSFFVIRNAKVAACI
T1 sequence (Q9Y251 36-109 limits assumed): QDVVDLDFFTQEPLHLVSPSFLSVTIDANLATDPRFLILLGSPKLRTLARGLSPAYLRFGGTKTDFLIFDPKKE
Description: Heparanase inhibition was determined using standard methods and the results expressed as the half maximal inhibitory concentration (IC50) being the concentration of the compound of the invention required to achieve 50% inhibition of heparanase.

[2] = tested on: RIP-OVAhi mice; assay: Adoptive transfer of Type 1 diabetes in transgenic RIP-OVAhi mice (acute Type 1 diabetes model); assay type: in vivo, mouse
Description: FIG. 2. Treatment of RIP-OVA^hi mice from the time of adoptive transfer of OVA-specific OT-1 and activated […] tg T cells with the small molecule heparanase inhibitor BT-2012 (10 mg/kg QD, IP in saline/50% DMSO).
FIG. 3. Treatment of RIP-OVA^hi mice from the time of adoptive transfer of OVA-specific OT-1 and activated OT-II tg T cells with a control heparanase inhibitor, (denoted “BT-1055”) (10 mg/kg QD, IP in saline/20% DMSO).
In NOD mice, the autoimmune disease process develops slowly because of the asynchronous destruction of the beta cells in different islets. Indeed Type 1 diabetes develops only after >90% of the total islet beta cell mass has been destroyed. The slow course of the disease in NOD mice offers realistic potential for immune intervention but, unfortunately, high throughput screening of test drugs is not feasible. A more acute model of diabetes can be induced experimentally using RIP-OVAhi transgenic mice which express a foreign ovalbumin (OVA) peptide, under the control of the rat insulin promoter (RIP), only in islet beta cells. Following adoptive transfer of naïve OVA specific CD8+ (OT-I) and activated OVA-specific CD4+ (OT-II) transgenic T cells, the transgenic T cells traffic to the host lymph nodes where the OT-I T cells become activated and then to the OVA-expressing pancreatic islets where they rapidly induce islet beta cell destruction and diabetes, all mice succumbing to rapid onset of high blood glucose levels (hyperglycaemia) in the second week after cell transfer. […]
Using the RIP-OVAhi transgenic mice the effect of a heparanase inhibitor compound (denoted “BT-1055”) was tested for its effect on blood glucose levels. Following adoptive transfer of naïve OVA specific CD8+ (OT-I) and activated OVA-specific CD4+ (OT-II) transgenic T cells into a number of RIP-OVAhi mice blood glucose was monitored regularly over two weeks in populations of mice treated with BT-1055 and a control group administered saline (FIG. 3).

[3] = tested on: db/db mice; assay: Insulin content in pancreas sections/islets of db/db mice (Type 2 diabetes model), anti-insulin antibody staining; assay type: in vivo, mouse; details: 50 mg/kg daily intraperitoneal injection, versus saline treated db/db and wild-type mice
Description: FIG. 5. Insulin content in pancreas sections in db/db mice a model of Type 2 diabetes. Mice were treated daily with 50 mg/kg PI-88 IP from 4 weeks of age. Onset of clinical diabetes was determined by measuring urine glucose twice weekly with Multistix reagent strips and confirmed by measuring non-fasting blood glucose levels in tail vein blood using a MediSense glucometer with hyperglycemia defined as 2 consecutive blood glucose readings of 16 mmol/I or greater. Insulin was detected by anti-insulin antibody staining.
The db/db mouse has defective leptin signalling resulting from a point mutation in the leptin receptor gene. Plasma insulin levels become elevated very early in life (10-14 days of age), and the affected animals are obese by the time they are 3-4 weeks old. The animals are insulin resistant, hypertriglyceridemic, and have impaired glucose tolerance.
db/db mice were treated with saline or 50 mg/kg of PI-88 by daily intraperitoneal injection. At the cessation of treatment pancreatic islets were isolated and stained for insulin and the level of insulin expression assessed by quantitative morphometric analyses.

[4] = tested on: db/db mice; assay: Intra-islet heparan sulfate content in db/db mice, Alcian blue staining; assay type: in vivo, mouse; details: 50 mg/kg daily intraperitoneal injection, versus saline treated db/db and wild-type mice
Description: FIG. 6. Intra-islet HS content in pancreas sections in treated db/db mice. Mice were treated daily with 50 mg/kg PI-88 IP from 4 weeks of age. Onset of clinical diabetes was determined by measuring urine glucose twice weekly with Multistix reagent strips and confirmed by measuring non-fasting blood glucose levels in tail vein blood using a MediSense glucometer with hyperglycemia defined as 2 consecutive blood glucose readings of 16 mmol/I or greater. Islet HS was detected by Alcian blue staining.
db/db mice were treated with saline or 50 mg/kg of PI-88 daily by intraperitoneal injection. At the cessation of treatment pancreatic islets were isolated and stained with alcian blue to visualise heparan sulfate and the heparan sulfate content of the islets was assessed by quantitative morphometric analyses.

[5] = read-out: Heparanase inhibition IC50

Row | IC50 [1, 5] | Compound | also measured
1 | 15.6 µM | COc1cc2[nH]c(=S)n(CCNC(=O)c3ccc(-c4ccccc4)nc3)c(=N)c2cc1OC [BT2125] | –
2 | 27.4 µM | COc1cc2[nH]c(=S)n(CCc3cn(C)c4ccccc34)c(=N)c2cc1OC [BT2024] | –
3 | 23.6 µM | COc1cc2nc(SC)n(C3CN(C(=O)c4cc5ccc(-c6cccnc6)cc5[nH]4)C3)c(=N)c2cc1OC [BT2141] | –
4 | 51 µM | COc1cc2[nH]c(=S)n(CCNC(=O)c3cc4ccc(-c5ccc(C(=O)N6CCN(C)CC6)cc5)cc4[nH]3)c(=N)c2cc1OC [BT2073] | –
5 | 49.3 µM | COc1ccc2[nH]c(=S)n(CCc3c[nH]c4ccccc34)c(=N)c2c1 [BT2014] | –
6 | 7 µM | COc1cc2nc(SCc3ccc(OC(F)(F)F)cc3)n(C3CN(C(=O)c4cc5ccc(-c6cccnc6)cc5[nH]4)C3)c(=N)c2cc1OC [BT2142] | –
7 | 40.1 µM | COc1ccc(Cn2c(=S)[nH]c3cc(OC)c(OC)cc3c2=N)c(OC)c1 [BT2027] | –
8 | 34.8 µM | COc1cc2[nH]c(=S)n(CCNC(=O)c3cc4cc(-c5cnn(C)c5)ccc4[nH]3)c(=N)c2cc1OC [BT2078] | –
9 | 19.1 µM | COc1cc2[nH]c(=S)n(CCc3c[nH]c4ccc(-c5cccnc5)cc34)c(=N)c2cc1OC [BT2055] | –
10 | 33 µM | COc1cc2nc(SC)n(C3CN(C(=O)c4cc5ccc(-c6cccnc6)cc5[nH]4)C3)c(=N)c2cc1OC [BT2143] | –
11 | 90.4 µM | COc1cc2[nH]c(=O)n(CCNC(=O)c3cc4cc(C(=O)N5CCC5)ccc4[nH]3)c(=N)c2cc1OC [BT2080] | –
12 | 12.8 µM | COc1cc2[nH]c(=S)n(CCNC(=O)c3cccc(-c4ccc(C(=O)N5CCN(C)CC5)cc4)n3)c(=N)c2cc1OC [BT2116] | –
13 | 22 µM | COc1cc2nc(SCc3ccc(OC(F)(F)F)cc3)n(C3CN(C(=O)c4cc5ccc(-c6cccnc6)cc5[nH]4)C3)c(=N)c2cc1OC [BT2145] | –
14 | 14.8 µM | COc1cc2[nH]c(=S)n(CCc3c[nH]c4ccccc34)c(=N)c2cc1OC [BT2012] | Individual treated mice in which blood glucose remained normal ([2]; 10 mg/kg QD, IP, 14 day assay period): 50%; Incidence of diabetes (blood glucose >12 mmol) reduced ([2]; 10 mg/kg QD, IP, from the time of adoptive transfer of OT-I and activated OT-II tg T cells): 50%; Protection from Type 1 diabetes induction following adoptive transfer of diabetogenic tg T cells ([2]; 10 mg/kg, by 14 days after transfer): protected RIPOVAhi mice from Type 1 diabetes induction
15 | 35 µM | COc1cc2[nH]c(=S)n(CCNC(=O)c3cc4cc(C(=O)N5CCOCC5)ccc4[nH]3)c(=N)c2cc1OC [BT2082] | –
16 | 13 µM | COc1cc2nc(SCc3ccc(C(F)(F)F)cc3)n(C3CN(C(=O)c4cc5ccc(-c6cccnc6)cc5[nH]4)C3)c(=N)c2cc1OC [BT2139] | –

Row | IC50 [1, 5] | Compound | also measured
17 | 1.3 µM | COc1cc2[nH]c(=S)n(C3CN(C(=O)c4cc5cc(-c6cccnc6)ccc5[nH]4)C3)c(=N)c2cc1OC [BT2085] | –
18 | 12.4 µM | COc1cc2[nH]c(=S)n(CCNC(=O)c3cc4ccc(-c5ccc(N6CCN(C)CC6)nc5)cc4[nH]3)c(=N)c2cc1OC [BT2076] | –
19 | 12.5 µM | COc1cc2[nH]c(=S)n(CCNC(=O)c3cccc(-c4ccc5nonc5c4)n3)c(=N)c2cc1OC [BT2117] | –
20 | 20.6 µM | COc1cc2[nH]c(=S)n(CCNC(=O)c3cc4cc(-c5ccc(N6CCN(C)CC6)nc5)ccc4[nH]3)c(=N)c2cc1OC [BT2075] | –
21 | 64 µM | COc1cc2nc(SCc3ccccc3)n(CCNC(=O)c3cc4ccccc4[nH]3)c(=N)c2cc1OC [BT2135] | –
22 | 37.5 µM | COc1cc2nc(SCc3ccc(C(F)(F)F)cc3)n(C3CN(C(=O)c4cc5ccc(-c6cccnc6)cc5[nH]4)C3)c(=N)c2cc1OC [BT2140] | –
23 | 58.6 µM | COc1cc2[nH]c(=S)n(CCNC(=O)c3nnc(-c4ccccc4)o3)c(=N)c2cc1OC [BT2132] | –
24 | – | PI-88 | Expression of insulin in islets (quantitative morphometric analyses) [3]: increased compared to the saline treated db/db mice and is near to the level of insulin expression in the wild-type mice; Islet heparan sulfate levels (quantitative morphometric analyses) [4]: increased compared to the saline treated db/db mice and are near to the levels of heparan sulfate in the islets of wild-type mice
25 | – | COc1cc2[nH]c(=S)n(CCn3cc(C(=O)NCCN4CCOCC4)c4ccccc43)c(=N)c2cc1OC [BT2104] | IC50 ([1]; Heparanase inhibition IC50): 44.8 µM
26 | 90.4 µM | COc1cc2[nH]c(=O)n(CCNC(=O)c3cc4cc(C(=O)N5CCOCC5)ccc4[nH]3)c(=N)c2cc1OC [BT2081] | –
27 | 59.9 µM | COc1cc2[nH]c(=S)n(CCNC(=O)c3nnc(-c4ccccc4)o3)c(=N)c2cc1OC [BT2144] | –
28 | 9.4 µM | COc1ccc2[nH]cc(CCn3c(=S)[nH]c4cc(OC)c(OC)cc4c3=N)c2c1 [BT2046] | –
29 | 19.7 µM | COc1cc2[nH]c(=S)n(CCNC(=O)c3cccc(-c4ccccc4)n3)c(=N)c2cc1OC [BT2115] | –
30 | 30 µM | COc1cc2[nH]c(=S)n(CCc3c[nH]c4ccccc34)c(=N)c2cc1OC [BT2044] | –
31 | 37.2 µM | COc1ccc(OC)c(Cn2c(=S)[nH]c3cc(OC)c(OC)cc3c2=N)c1 [BT2022] | –
